Assay results reported in patent US20140221499A1, “NOVEL RODENT CONTROL AGENTS AND USES THEREOF” (priority 2011, published 2014).

Key:
[1] = target: TAAR1 (Mus musculus, UniProt Q923Y8); experiment: TAAR1 reporter gene assay; type: cell-based
Protocol: HEK293 cells were co-transfected with TAAR expression plasmids and a cAMPdependent reporter gene encoding secreted alkaline phosphatase (CRE-SEAP). Transfected cells were incubated with urine extracts from different mammalian species, and phosphatase activity was quantified with a fluorescent substrate as a reporter for TAAR activation. […] Responses to predator odors were not observed in control cells transfected with reporter gene alone. Three other TAARs-TAAR7f, TAAR8c, and TAAR9-detected natural products common to urine of numerous mammalian species, including mouse, rat, human, and carnivores (FIG. 1B, FIG. 11). However, these receptors detect carnivore and non-carnivore urines with similar sensitivity. We reasoned that TAAR4 detected a specific chemical enriched in predator urine, and that this cue can function as a kairomone. […] Basic dichloromethane extracts of bobcat urine were separated by silica gel chromatography, and fractions analyzed with the reporter gene assay (FIG. 2A). Several chromatography fractions containing the TAAR4 activator were obtained and analyzed by mass spectrometry (FIG. 2B).
TAAR functional assays. […] SEAP activity is measured as fluorescence resulting from dephosphorylation of a substrate, 4-methylumbelliferyl phosphate. Fluorescence values were obtained using an EnVision plate reader (Perkin Elmer) and are reported directly without normalization. […]

[2] = target: T1, rTAAR8c (Rattus norvegicus, UniProt Q923Y0); experiment: CRE-SEAP reporter gene assay in HEK293 cells transfected with rTAAR8c; type: cell-based; conditions: FIG. 11A, functional with or without 'Rho tag', EC50 ± s.e.m., 4-parameter Hill equation
T1 construct: Full Taar coding regions were cloned into pcDNA3.1; expressed in transfected cells; host or cells: HEK293
T1 sequence (Q923Y0 1-344): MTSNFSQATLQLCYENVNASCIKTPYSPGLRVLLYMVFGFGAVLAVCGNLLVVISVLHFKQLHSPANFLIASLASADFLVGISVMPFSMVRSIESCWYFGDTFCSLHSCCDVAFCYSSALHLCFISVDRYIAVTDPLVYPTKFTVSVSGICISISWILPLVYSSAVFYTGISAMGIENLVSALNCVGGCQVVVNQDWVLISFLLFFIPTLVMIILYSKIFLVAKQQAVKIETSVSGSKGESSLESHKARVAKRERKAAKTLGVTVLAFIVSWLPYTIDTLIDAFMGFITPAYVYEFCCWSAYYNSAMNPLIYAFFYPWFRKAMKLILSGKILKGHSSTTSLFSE
Protocol: FIG. 11 illustrates the dose-dependent responses of TAARs to amines. HEK293 cells were cotransfected with plasmids encoding CRE-SEAP and rTAARs (a) or mTAARs (b), incubated with concentrations of ligands indicated, and assayed for reporter activity (triplicates±s.d.). EC50 values (±s.e.m, bottom right) were calculated using SigmaPlot (Systat Software) and a 4-parameter Hill equation.
The following mixes (10 μM of each indicated compounds) were tested for their ability to activate rat TAARs. Mix 1: butylamine, dibutylamine, hexylamine. Mix 2: 2-aminopentane, isoamylamine, isobutylamine, isopropylamine. Mix 3: N,N-dimethylcyclohexylamine, 1-methylindole, tryptamine, phenylethylamine. Mix 4: indole, 1-methylpyrrolidine, 1-methylpiperidine, pyrrolidine. […]
Full Taar coding regions were cloned into pcDNA3.1-(Invitrogen) with or without a 5′ DNA extension of 69 bp encoding the first 20 amino acids of bovine rhodopsin followed by a cloning linker ([…]). […] Fluorescence was measured on an EnVision plate reader (Perkin Elmer) and SEAP activity graphed as relative fluorescence of a phosphatase substrate.
Here, we set out to identify agonists for additional mouse and rat TAARs. […] Transfected cells were incubated with test chemicals, and phosphatase activity was quantified with a fluorescent substrate as a reporter for TAAR activation. […]

TAAR1, sequence (Q923Y8 whole entry, the tested form may be a part): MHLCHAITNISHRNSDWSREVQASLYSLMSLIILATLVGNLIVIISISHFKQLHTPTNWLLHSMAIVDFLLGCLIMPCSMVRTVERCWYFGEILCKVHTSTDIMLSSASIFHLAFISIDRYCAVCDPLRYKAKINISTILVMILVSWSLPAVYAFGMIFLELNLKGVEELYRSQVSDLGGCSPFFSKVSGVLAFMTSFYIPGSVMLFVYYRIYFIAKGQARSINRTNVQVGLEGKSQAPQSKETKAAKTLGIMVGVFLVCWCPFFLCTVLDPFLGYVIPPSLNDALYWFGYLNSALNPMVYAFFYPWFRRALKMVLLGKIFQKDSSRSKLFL

NCCc1ccccc1 [2-phenylethylamine]
TAAR1 activation [1]: did activate TAAR1

CN(C)C1CCCCC1 [N,N-DIMETHYLCYCLOHEXYLAMINE, N,N-dimethylcyclohexylamine]
EC50 [2]: 550 ± 190 nM
